# System: SU-DHL-4 cell line
# Test: SU-DHL-4 cell proliferation assay (Cell Titer-Glo viability)
# Type: cell-based
# Details: Homo sapiens; cell viability IC50 activity level, DLBCL cell line SU-DHL-4, 120 hours post-treatment; read-out: SU-DHL-4 Act
# Description: SU-DHL-4 Cell Proliferation Assay.
# The following is an example of an assay that can be used to determine the anti-proliferative activity of Isoindolinedione Compounds in a DLBCL cell line, for example, the SU-DHL-4 cell line (Deutsche Sammlung von Mikroorganismen and Zellkulturen GmbH [DSMZ]: catalogue number ACC-495) at 120 hours post-treatment. The seeding density for SU-DHL-4 can be optimized to ensure assay linearity in 1536-well plates.
# Increasing concentrations of test compounds (0.5 nM to 10 μM) were spotted in a 20-point dilution fashion (unevenly spaced data points) via an acoustic dispenser (EDC ATS-100) into an empty 1536-well plate. The DMSO concentration was kept constant for a final assay concentration of 0.1% DMSO. Prior to testing, SU-DHL-4 cells were grown in RPMI-1640 (Roswell Park Memorial Institute—1640) medium with 10% FBS (fetal bovine serum: HyClone) and expanded in culture flasks to provide sufficient amounts of starting material. Cells were then diluted to 500 cells per well in a 5 μL volume, and added directly to the compound-spotted 1536-well plates. Cells were allowed to grow for 120 hours in 5% CO2 at 37° C. At the time when exposure of cells to compound began (to), initial viable cell number was assessed via Cell Titer-Glo® Luminescent Cell Viability Assay at a 1 vol:2 vol ratio according to manufacturer's instructions (Promega Corporation, Madison, Wis.) by quantifying the level of luminescence generated by adenosine-5′-triphosphate (ATP) present in viable cells. After 120 hours, cell viability of the treated cells was assessed via Cell Titer-Gb® and read for luminescence. All growth inhibition curves were processed and evaluated using Activity Base (IDBS, Alameda, Calif.). Cell viability IC50 values were calculated using a four parameter logistic model (sigmoidal dose-response model): y=(A+((B−A)/(1+((C/x)^D)))) wherein: A=YMin B=YMax C=EC50 D=Hill slope IC50=the concentration of the compound when Y=50% of DMSO control Y=cell viability measured as luminescence unit, and x=concentration of compound.
row,Structure (SMILES),IC50 [nM]
1,"CC(C)(C)C1CCN(Cc2ccc(CNc3cccc4c3C(=O)N(C3CCC(=O)NC3=O)C4=O)c(F)c2)CC1 (stereo not drawn) [Cpd 94, 4-(4-((4-tert-butylpiperidin-1-yl)methyl)-2-fluorobenzylamino)-2-(2,6-dioxopiperidin-3-yl)isoindoline-1,3-dione]",< 200
2,"CC1(C)CN(C2CN(Cc3ccc(CNc4cccc5c4C(=O)N(C4CCC(=O)NC4=O)C5=O)cc3)C2)CCO1 (stereo not drawn) [Cpd 235, 4-(4-((3-(2,2-dimethylmorpholino)azetidin-1-yl)methyl)benzylamino)-2-(2,6-dioxopiperidin-3-yl)isoindoline-1,3-dione]",501 to 750
3,"N#Cc1ccc(C2CN(Cc3ccc(CNc4cccc5c4C(=O)N(C4CCC(=O)NC4=O)C5=O)cc3)C2)cc1 (stereo not drawn) [Cpd 7, 4-(1-(4-((2-(2,6-dioxopiperidin-3-yl)-1,3-dioxoisoindolin-4-ylamino)methyl)benzyl)azetidin-3-yl)benzonitrile]",< 200
4,"Cc1cc(CNc2cccc3c2C(=O)N(C2CCC(=O)NC2=O)C3=O)ccc1CN1CCN(C(C)C)CC1 (stereo not drawn) [Cpd 69, 2-(2,6-dioxopiperidin-3-yl)-4-(4-((4-isopropylpiperazin-1-yl)methyl)-3-methylbenzylamino)isoindoline-1,3-dione]",< 200
5,"Cc1cc(CNc2cccc3c2C(=O)N(C2CCC(=O)NC2=O)C3=O)ccc1CN1CCC(C(C)(C)C)CC1 (stereo not drawn) [Cpd 43, 4-(4-((4-tert-butylpiperidin-1-yl)methyl)-3-methylbenzylamino)-2-(2,6-dioxopiperidin-3-yl)isoindoline-1,3-dione]",< 200
6,"Cc1cc(CNc2cccc3c2C(=O)N(C2CCC(=O)NC2=O)C3=O)ccc1CN1CC(N2[C@H](C)COC[C@@H]2C)C1 (stereo partly drawn) [Cpd 240, 4-(4-((3-((3S,5R)-3,5-dimethylmorpholino)azetidin-1-yl)methyl)-3-methylbenzylamino)-2-(2,6-dioxopiperidin-3-yl)isoindolinne-1,3-dione]",200 to 500
7,"NC(=O)c1ccc(N2CCN(Cc3ccc(CNc4cccc5c4C(=O)N([C@H]4CCC(=O)NC4=O)C5=O)c(F)c3)CC2)nc1 [Cpd 207, (S)-6-(4-(4-((2-(2,6-dioxopiperidin-3-yl)-1,3-dioxoisoindolin-4-ylamino)methyl)-3-fluorobenzyl)piperazin-1-yl)nicotinamide]",< 200
8,"C[C@@H]1COC[C@H](C)N1C1CN(Cc2ccc(CNc3cccc4c3C(=O)N(C3CCC(=O)NC3=O)C4=O)c(F)c2)C1 (stereo partly drawn) [Cpd 249, 4-(4-((3-((3S,5R)-3,5-dimethylmorpholino)azetidin-1-yl)methyl)-2-fluorobenzylamino)-2-(2,6-dioxopiperidin-3-yl)isoindoline-1,3-dione]",< 200
9,"O=C1CCC(N2C(=O)c3cccc(NCc4ccc(CN5CCN(c6ccc(F)cc6F)CC5)cc4)c3C2=O)C(=O)N1 (stereo not drawn) [Cpd 1, 4-(4-((4-(2,4-difluorophenyl)piperazin-1-yl)methyl)benzylamino)-2-(2,6-dioxopiperidin-3-yl)isoindoline-1,3-dione]",501 to 750
10,"O=C1CCC(N2C(=O)c3cccc(NCc4ccc(CN5CC6(CCCCC6)C5)cc4)c3C2=O)C(=O)N1 (stereo not drawn) [Cpd 72, 4-(4-(2-azaspiro[3.5]nonan-2-ylmethyl)benzylamino)-2-(2,6-dioxopiperidin-3-yl)isoindoline-1,3-dione]",200 to 500
11,"Cc1cc(CNc2cccc3c2C(=O)N(C2CCC(=O)NC2=O)C3=O)ccc1CN1CCN(c2ccc(C#N)cc2Cl)CC1 (stereo not drawn) [Cpd 61, 3-chloro-4-(4-(4-((2-(2,6-dioxopiperidin-3-yl)-1,3-dioxoisoindolin-4-ylamino)methyl)-2-methylbenzyl)piperazin-1-yl)benzonitrile]",< 200
12,"C[C@@H]1CN(c2ccc(C#N)cn2)CCN1Cc1ccc(CNc2cccc3c2C(=O)N(C2CCC(=O)NC2=O)C3=O)cc1 (stereo partly drawn) [Cpd 53, 6-((3R)-4-(4-((2-(2,6-dioxopiperidin-3-yl)-1,3-dioxoisoindolin-4-ylamino)methyl)benzyl)-3-methylpiperazin-1-yl)nicotinonitrile]",< 200
13,"CN1CCC2(CCN(Cc3ccc(CNc4cccc5c4C(=O)N(C4CCC(=O)NC4=O)C5=O)cc3F)CC2)C1=O (stereo not drawn) [Cpd 153, 2-(2,6-dioxopiperidin-3-yl)-4-(3-fluoro-4-((2-methyl-1-oxo-2,8-diazaspior[4.5]decan-8-yl)methyl)benzylamino)isoindoline-1,3-dione]",501 to 750
14,"CCOC1(C)CCN(Cc2ccc(CNc3cccc4c3C(=O)N(C3CCC(=O)NC3=O)C4=O)cc2F)CC1 (stereo not drawn) [Cpd 159, 2-(2,6-dioxopiperidin-3-yl)-4-(4-((4-ethoxy-4-methylpiperidin-1-yl)methyl)-3-fluorobenzylamino)isoindoline-1,3-dione]",< 200
15,"Cc1cc(CNc2cccc3c2C(=O)N(C2CCC(=O)NC2=O)C3=O)ccc1CN1CCC(OC(C)(C)C)CC1 (stereo not drawn) [Cpd 87, 4-(4-((4-tert-butoxypiperidin-1-yl)methyl)-3-methylbenzylamino)-2-(2,6-dioxopiperidin-3-yl)isoindoline-1,3-dione]",< 200
16,"CC(C)(C)OC1CCN(Cc2ccc(CNc3cccc4c3C(=O)N(C3CCC(=O)NC3=O)C4=O)c(F)c2)CC1 (stereo not drawn) [Cpd 143, 4-(4-((4-tert-butyoxypiperidin-1-yl)methyl)-2-fluorobenzylamino)-2-(2,6-dioxopiperidin-3-yl)isoindoline-1,3-dione]",< 200
17,"O=C1CCC(N2C(=O)c3cccc(NCc4ccc(CN5CCN(c6ccccc6Cl)CC5)cc4)c3C2=O)C(=O)N1 (stereo not drawn) [Cpd 12, 4-(4-((4-(2-chlorophenyl)piperazin-1-yl)methyl)benzylamino)-2-(2,6-dioxopiperidin-3-yl)isoindoline-1,3-dione]",200 to 500
18,"O=C1CCC(N2C(=O)c3cccc(NCc4ccc(CN5CC6(CCC6)C5)c(F)c4)c3C2=O)C(=O)N1 (stereo not drawn) [Cpd 162, 4-(4-(2-azaspiro[3.3]heptan-2-ylmethyl)-3-fluorobenzylamino)-2-(2,6-dioxopiperidin-3-yl)isoindoline-1,3-dione]",200 to 500
19,"O=C1CCC(N2C(=O)c3cccc(NCc4ccc(CN5CCN(C(=O)c6ccccc6F)CC5)cc4F)c3C2=O)C(=O)N1 (stereo not drawn) [Cpd 188, 2-(2,6-dioxopiperidin-3-yl)-4-(2-fluoro-4-((4-(2-fluorobenzoyl)piperazin-1-yl)methyl)benzylamino)isoindoline-1,3-dione]",751 to 1000
20,"O=C1CCC(N2C(=O)c3cccc(NCc4ccc(CN5CCC6(CCCO6)CC5)cc4F)c3C2=O)C(=O)N1 (stereo not drawn) [Cpd 144, 4-(4-(1-oxa-8-azaspiro[4.5]decan-8-ylmethyl)-2-fluorobenzylamino)-2-(2,6-dioxopiperidin-3-yl)isoindoline-1,3-dione]",< 200
21,"O=C1CCC(N2C(=O)c3cccc(NCc4ccc(CN5CC(N6CCOCC6)C5)cc4F)c3C2=O)C(=O)N1 (stereo not drawn) [Cpd 171, 2-(2,6-dioxopiperidin-3-yl)-4-(2-fluoro-4-((3-morpholinoazetidin-1-yl)methyl)benzylamino)isoindoline-1,3-dione]",< 200
22,"COc1cc(N2CCN(Cc3ccc(CNc4cccc5c4C(=O)N(C4CCC(=O)NC4=O)C5=O)cc3)CC2)ncn1 (stereo not drawn) [Cpd 136, 2-(2,6-dioxopiperidin-3-yl)-4-(4-((4-(6-methoxypyrimidin-4-yl)piperazin-1-yl)methyl)benzylamino)isoindoline-1,3-dione]",751 to 1000
23,"Cc1cc(CN2CC(c3ccc(C#N)cc3)C2)ccc1CNc1cccc2c1C(=O)N(C1CCC(=O)NC1=O)C2=O (stereo not drawn) [Cpd 105, 4-(1-(4-((2-(2,6-dioxopiperidin-3-yl)-1,3-dioxoisoindoliln-4-ylamino)methyl)-3-methylbenzyl)azetidin-3-yl)benzonitrile]",< 200
24,"Cc1cc(CN2CCN(c3ccc(F)cc3F)CC2)ccc1CNc1cccc2c1C(=O)N(C1CCC(=O)NC1=O)C2=O (stereo not drawn) [Cpd 101, 4-(4-((4-(2,4-difluorophenyl)piperazin-1-yl)methyl)-2-methylbenzylamino)-2-(2,6-dioxopiperidin-3-yl)isoindoline-1,3-dione]",200 to 500
25,"NC(=O)c1ccc(N2CCN(Cc3ccc(CNc4cccc5c4C(=O)N([C@@H]4CCC(=O)NC4=O)C5=O)cc3)CC2)nc1 [Cpd 204, (R)-6-(4-(4-((2-(2,6-dioxopiperidin-3-yl)-1,3-dioxoisoindolin-4-ylamino)methyl)benzyl)piperazin-1-yl)nicotinamide]",< 200
26,"Cc1cc(CNc2cccc3c2C(=O)N(C2CCC(=O)NC2=O)C3=O)ccc1CN1CC2(CCCC2)C1 (stereo not drawn) [Cpd 200, 4-(4-(2-azaspiro[3.4]octan-2-ylmethyl)-3-methylbenzylamino)-2-(2,6-dioxopiperidin-3-yl)isoindoline-1,3-dione]",< 200
27,"O=C1CCC(N2C(=O)c3cccc(NCc4ccc(CN5CCC(O)(c6ccccn6)CC5)cc4)c3C2=O)C(=O)N1 (stereo not drawn) [Cpd 111, 2-(2,6-dioxopiperidin-3-yl)-4-(4-((4-hydroxy-4-(pyridin-2-yl)piperidin-1-yl)methyl)benzylamino)isoindoline-1,3-dione]",< 200
